A short description of series [1]: Microsomal stability (intrinsic clearance), mouse. The conditions noted are these: mouse liver microsomes, 0.5 mg/ml protein, Clint. Format: in vitro ADME. An excerpt: (§1) A microsomal stability assay is used to measure in vitro clearance (Clint). The assay involves measuring the rate of disappearance of a compound due to its intrinsic attitude to be metabolized (“intrinsic” meaning that the disappearance is not affected by other properties like permeability, binding etc. that play a role when quantifying in vivo clearance). The microsomal stability (intrinsic clearance, Clint) and thus metabolic stability is generally given as μl/min/mg protein. It can be visualized as the volume of solution that 1 mg of microsomes is able to clear of the compound in one minute.
(§2) A Tecan Genesis workstation (RSP 150/8) was used for to perform the microsomal incubations. Analysis was carried out using a Waters ACQUITY UPLC system coupled to an ABSciex API3000 mass spectrometer. Data analysis was performed using Assay Explorer (Symyx).
(§3) Column: Acquity UPLC BEH C18, 2.1×50 mm, 1.7 μm (Waters) Mobile phases: A=0.1% formic acid in water; B=acetonitrile
(§4) Flow rate: 0.750 mL/min; Detection: ESI, MRM; Injection: 10 μL; Column temperature: 50° C.
(§5) • Potassium phosphate buffer: 0.05 M potassium phosphate buffer pH 7.4 containing 1 mM MgCl2 • NADPH (nicotinamide adenine dinucleotide phosphate): 22.5 mg NADPH-Na4 in 1.8 ml potassium phosphate buffer • Acetonitrile: 50 Vol % acetonitrile (1 volume acetonitrile, 1 volume water) • DMSO: 20 Vol % DMSO in water • Stock solution of 20 mg/ml human or mouse liver microsomes (protein)/ml in phosphate buffer • Stock solution of 10 mM compound in 100% DMSO
(§6) Dilution of test compounds was done in 2 steps starting from a 10 mM stock solution of the respective compound in 100% DMSO. First 4 μl stock solution was added to 196 μl of 20 Vol % DMSO. In a second step, 10 μl of the first dilution were added to 1590 μl potassium phosphate buffer to achieve a final concentration of 1.25 μM in the final compound dilution. Thus, the amount of organic solvent in the assay was kept to a minimum (<1%).
(§7) The human or mouse liver microsome (protein) solution to be used in the assay was prepared by mixing 750 μl stock solution (20 mg/ml) and 2250 μl potassium phosphate buffer to a final concentration of 5 mg/ml.
(§8) Incubation was carried out on a 96 deep well incubation plate. 160 μl per well of the final compound dilution were transferred onto the incubation plate. Four samples of each compound dilution were assayed. 20 μl/well liver microsome solution was added to each well and the samples were then preincubated for 5 min at 37° C. and 800 rpm agitation. Two reference compounds (verapamil and dextromethorphan) were used in parallel in every experiment and for each species (human or mouse microsomes) to ensure system performance and for comparison.
(§9) On a separate stop plate, 160 μl acetonitrile were added per well.
(§10) After preincubation, i.e. at time t1=0 minutes, 18 μl samples of incubated compound solution and were transferred and added per well (containing acetonitrile) on the stop plate to prevent a reaction (0 minutes control samples, 4 samples per compound). Equally, 18 μl samples of incubated reference compound solution were transferred and added per well (containing acetonitrile) on the stop plate at time t1=0 minutes and again after 30 minutes (t4), solubility and chemical stability of the compound were checked. […]

In series [2] the target is T1, humanMTH1 (aminoacids 42 to 197) (Homo sapiens, UniProt P36639).
T1 construct: humanMTH1 (aminoacids 42 to 197); His tag at the N-terminus; purchased Abnova ab99390; host or cells: E. coli
Briefly: Binding affinities and kinetics on MTH1 surfaces by surface plasmon resonance (SPR). As to conditions: on MTH1.

The nature of series [3]: Microsomal stability (intrinsic clearance), human. The series is classed as in vitro ADME. As to conditions: human liver microsomes, 0.5 mg/ml protein, Clint.
From the text: as §1, §2, §3, §4, §5, §6, §7, §8, §9, §10

One may read the residence time as the mean lifetime of the complex, commonly the reciprocal of the off-rate. For `CNc1cc(-c2cccc(Cl)c2Cl)nc(N)n1` [TH-287, reference compound], the Microsomal stability mouse in series [1] worked out at 444 μl/min/mg prot. The residence time in series [2] (calculated on the basis of the KD values) is less than 1 min; in series [2] (value in brackets) it was 0.9 min. In addition, in series [3], the Microsomal stability human stood at 32 μl/min/mg prot.

The values above are taken from patent publication US20180118721A1, “PYRIMIDINE DERIVATIVES” (Merck Patent GmbH, priority 2015, published 2018).
